The structures appear in SMILES notation. pIC50: −log10 of the molar value.

Bruton's Tyrosine Kinase (BTK), inactivated state, sequence (Q06187 whole entry): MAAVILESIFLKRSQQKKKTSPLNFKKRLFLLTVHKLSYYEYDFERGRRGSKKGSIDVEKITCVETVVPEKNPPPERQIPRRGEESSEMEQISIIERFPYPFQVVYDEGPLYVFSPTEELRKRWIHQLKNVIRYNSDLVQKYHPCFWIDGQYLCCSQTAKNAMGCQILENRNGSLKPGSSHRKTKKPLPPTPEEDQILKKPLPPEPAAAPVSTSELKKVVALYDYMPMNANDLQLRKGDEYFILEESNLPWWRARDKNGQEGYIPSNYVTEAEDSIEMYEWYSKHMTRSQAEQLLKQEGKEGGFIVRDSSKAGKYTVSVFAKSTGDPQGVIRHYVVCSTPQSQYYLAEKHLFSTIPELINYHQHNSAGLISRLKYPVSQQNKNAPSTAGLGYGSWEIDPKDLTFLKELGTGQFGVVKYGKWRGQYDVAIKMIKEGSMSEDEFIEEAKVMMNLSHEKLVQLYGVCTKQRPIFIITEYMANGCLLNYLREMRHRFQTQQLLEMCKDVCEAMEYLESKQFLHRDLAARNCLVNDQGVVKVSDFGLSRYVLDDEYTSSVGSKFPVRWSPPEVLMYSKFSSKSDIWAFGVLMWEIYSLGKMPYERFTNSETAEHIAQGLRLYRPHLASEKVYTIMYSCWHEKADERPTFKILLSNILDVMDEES

In this test the target is Bruton's Tyrosine Kinase (BTK), inactivated state (Homo sapiens (Human), UniProt Q06187). The test is described as follows: Bruton's Tyrosine Kinase (BTK) Inhibition TR-FRET (Time Resolved FRET) competition assay. In kind it is binding. Particulars: competition with Kinase Tracer 178 for BTK-Eu; plates incubated 18-24 h at 14° C. Here is the method:
Bruton's Tyrosine Kinase (BTK) Inhibition TR-FRET (Time Resolved FRET) Assay
This BTK competition assay measures compound potency (IC50) for the inactivated state of Bruton's Tyrosine Kinase using FRET (Förster/Fluoresence Resonance Energy Transfer) technology. The BTK-Eu complex was incubated on ice one hour prior to use at a starting concentration of 50 nM BTK-Bioease™: 10 nM Eu-streptavidin (Perkin-Elmer Catalog #AD0062). The assay buffer consisted of 20 mM HEPES (pH 7.15), 0.1 mM DTT, 10 mM MgCl2, 0.5 mg/ml BSA with 3% Kinase Stabilizer (Fremont Biosolutions, Catalog #STB-K02). After 1 h, the reaction mixture from above was diluted 10 fold in assay buffer to make 5 nM BTK: 1 nM Eu-Streptavidin complex (donor fluorophore). 18 μl of a mixture of 0.11 nM BTK-Eu and 0.11 nM Kinase Tracer 178 (Invitrogen, Catalog #PV5593,) with BTK-Eu alone as no negative control, was then dispensed into 384-well flat bottom plates (Greiner, 784076). Compounds to be tested in assay were prepared as 10× concentrations and serial dilution in half-log increments was performed in DMSO so as to generate 10 point curves. To initiate the FRET reaction, compounds prepared as 10× stock in DMSO was added to the plates and the plates were incubated 18-24 h at 14° C.
After the incubation the plates were read on a BMG Pherastar Fluorescent plate reader (or equivalent) and used to measure the emission energy from the europium donor fluorophore (620 nm emission) and the FRET (665 nm emission). The negative control well values were averaged to obtain the mean minimum. The positive “no inhibitor” control wells were averaged to obtain the mean maximum. Percent of maximal FRET was calculated using following equation: % max FRET=100×[(FSRcmpd−FSRmean min)/(FSRmean max−FSRmean min)]
where FSR=FRET Signal ratio. % Max FRET curves were plotted in Activity Base (Excel) and the IC50 (%), hill slope, z′ and % CV were determined The mean IC50 and standard deviation will be derived from duplicate curves (singlet inhibition curves from two independent dilutions) using Microsoft Excel.
Representative compound data for this assay are listed below in Table II.
In general terms: In TR-FRET formats the signal depends on donor and acceptor labels being close together.
What is called pIC50 is −log10 of the IC50, conventionally taken in molar units. `C=C(C(=O)Nc1cccc(-c2c[nH]c3ncc(NC(=O)OCc4cccc(F)c4)cc23)c1)C(F)(F)F` [Compound 18, (3-fluorophenyl)methyl N-[3-[3-[2-(trifluoromethyl)prop-2-enoylamino]phenyl]-1H-pyrrolo[2,3-b]pyridin-5-yl]carbamate] showed a pIC50 of 6.91. The same measure for `CCC(=O)C(=O)Nc1cccc(-c2c[nH]c3ncc(NC(=O)OCc4ccccc4)cc23)c1` [Compound 4, benzyl N-[3-[3-(2-oxobutanoylamino)phenyl]-1H-pyrrolo[2,3-b]pyridin-5-yl]carbamate]: 8.10.

As for `CCC(C)C(=O)C(=O)Nc1cccc(-c2c[nH]c3ncc(NC(=O)OCc4ccccc4)cc23)c1` (stereo not shown) [Compound 11, benzyl N-[3-[3-[(3-methyl-2-oxopentanoyl)amino]phenyl]-1H-pyrrolo[2,3-b]pyridin-5-yl]carbamate], the negative logarithm of the IC50 (pIC50) was 6.69. This pIC50 is 1.41 log units lower than that of the compound before.

For the compound `CC(=O)C(=O)N1CC=C(c2c[nH]c3ncc(NC(=O)OCc4cccc(F)c4)cc23)CC1` [Compound 28, (3-fluorophenyl)methyl N-[3-[1-(2-oxopropanoyl)-3,6-dihydro-2H-pyridin-4-yl]-1H-pyrrolo[2,3-b]pyridin-5-yl]carbamate], the pIC50 is 6.68. As to `C=CC(=O)N1CCC(c2c[nH]c3ncc(NC(=O)OC(C)C)cc23)CC1` [Compound 32, propan-2-yl N-[3-(1-prop-2-enoylpiperidin-4-yl)-1H-pyrrolo[2,3-b]pyridin-5-yl]carbamate], the pIC50 was 7.57. The same measure for `C=CC(=O)N1C=C(c2c[nH]c3ncc(NC(=O)OCc4ccccc4)cc23)CCC1` [Compound 33, benzyl N-[3-(1-prop-2-enoyl-3,4-dihydro-2H-pyridin-5-yl)-1H-pyrrolo[2,3-b]pyridin-5-yl]carbamate]: 9.22; for `CCC(=O)C(=O)N1CC=C(c2c[nH]c3ncc(NC(=O)OCc4ccccc4Cl)cc23)CC1` [Compound 25, (2-chlorophenyl)methyl N-[3-[1-(2-oxobutanoyl)-3,6-dihydro-2H-pyridin-4-yl]-1H-pyrrolo[2,3-b]pyridin-5-yl]carbamate]: 6.39; for `CCC(=O)C(=O)Nc1cccc(-c2c[nH]c3ncc(NC(=O)OCc4cccc(F)c4)cc23)c1` [Compound 16, (3-fluorophenyl)methyl N-[3-[3-(2-oxobutanoylamino)phenyl]-1H-pyrrolo[2,3-b]pyridin-5-yl]carbamate]: 7.38. The figure for `CC(C)CC(=O)C(=O)Nc1cccc(-c2c[nH]c3ncc(NC(=O)OCc4ccccc4)cc23)c1` [Compound 12, benzyl N-[3-[3-[(4-methyl-2-oxopentanoyl)amino]phenyl]-1H-pyrrolo[2,3-b]pyridin-5-yl]carbamate] is 6.55.

As for `CN(C)C/C=C/C(=O)Nc1ccccc1-c1c[nH]c2ncc(NC(=O)OCc3ccccc3)cc12` [Compound 23, benzyl N-[3-[2-[[(E)-4-(dimethylamino)but-2-enoyl]amino]phenyl]-1H-pyrrolo[2,3-b]pyridin-5-yl]carbamate], the pIC50 is 6.48. The pIC50 values of the last two compounds are within 0.2 log units of each other. The same measure for `CC(=O)C(=O)N1CC=C(c2c[nH]c3ncc(NC(=O)OCc4ccccc4Cl)cc23)CC1` [Compound 24, (2-chlorophenyl)methyl N-[3-[1-(2-oxopropanoyl)-3,6-dihydro-2H-pyridin-4-yl]-1H-pyrrolo[2,3-b]pyridin-5-yl]carbamate]: 6.78; for `N#CC1(C(=O)Nc2cccc(-c3c[nH]c4ncc(NC(=O)OCc5ccccc5)cc34)c2)CC1` [Compound 21, benzyl N-[3-[3-[(1-cyanocyclopropanecarbonyl)amino]phenyl]-1H-pyrrolo[2,3-b]pyridin-5-yl]carbamate]: 6.54; for `CC(C)OC(=O)Nc1cnc2[nH]cc(-c3cccc(NC(=O)CC#N)c3)c2c1` [Compound 22, propan-2-yl N-[3-[3-[(2-cyanoacetyl)amino]phenyl]-1H-pyrrolo[2,3-b]pyridin-5-yl]carbamate]: 6.21.

These data come from patent publication US9617260B2, “Inhibitors of bruton's tyrosine kinase” (Hoffmann-La Roche Inc., priority 2013, dated 2017).
